Experimental data taken from PubChem BioAssay (NCI).
Where “and” joins values, the source holds several entries; their conditions need not be identical. Equal entries are not always repeated.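 Briefly, cells in 96-well plates were exposed to five compound concentrations for 48 h, and endpoints were estimated by linear interpolation. GI50 marks 50% less growth. TGI: total growth inhibition.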

Legend:
Assay in all cases: NCI-60 cell line screen, 48 h
A549 NSCLC = tested on: A549 NSCLC
ACHN renal = tested on: ACHN renal
HL-60(TB) leukemia = tested on: HL-60(TB) leukemia
HS 578T breast = tested on: HS 578T breast
NCI-H23 lung = tested on: NCI-H23 lung
RXF 393 renal = tested on: RXF 393 renal
SF-268 CNS = tested on: SF-268 CNS
U251 CNS = tested on: U251 CNS
OVCAR-4 ovarian = tested on: OVCAR-4 ovarian
SNB-75 CNS = tested on: SNB-75 CNS

SMILES	TGI (A549 NSCLC) [µM]	TGI (ACHN renal)	TGI (HL-60(TB) leukemia)	TGI (HS 578T breast)	TGI (NCI-H23 lung) [µM]	TGI (RXF 393 renal)	TGI (SF-268 CNS) [µM]	TGI (U251 CNS)	TGI (OVCAR-4 ovarian)	GI50 (A549 NSCLC)	GI50 (ACHN renal)	GI50 (HL-60(TB) leukemia) [µM]	GI50 (HS 578T breast) [µM]	GI50 (NCI-H23 lung) [µM]	GI50 (OVCAR-4 ovarian)	GI50 (RXF 393 renal) [µM]	GI50 (SF-268 CNS)	GI50 (SNB-75 CNS) [µM]	TGI (SNB-75 CNS) [µM]	GI50 (U251 CNS)
Cc1[nH]nc(C(F)(F)F)c1N=NN(C)C	> 100	18.9 µM	42.9 µM	44.6 µM	21.9	26.5 µM	24.1	36.5 µM	–	–	–	–	–	–	–	–	–	–	–	–
CCOC(=O)c1cc2cc3c4c(c2oc1=O)CCCN4CCC3	> 100	> 100 µM	45.8 µM	89.2 µM	> 100	39.4 µM	71.3	> 100 µM	> 100 µM	–	–	–	–	–	–	–	–	–	–	–
CC(=O)Oc1ccc(C23c4ccccc4C2(OC(C)=O)c2cc(OC(C)=O)ccc23)cc1 (configuration not stated)	70.2	5.4 µM	6.72 µM	> 100 µM	28.5	12.3 µM	22	5.63 µM	> 100 µM	17.6 µM	1.94 µM	2.41	2.93	10.2	30 µM	3.38	5.54 µM	6.49	54.7	2.34 µM
O=C(O)c1ccc(CI)cc1	33.8	30.1 µM	42.4 µM	> 100 µM	33.1	37.6 µM	39.8	20.8 µM	27.4 µM	–	–	–	–	–	–	–	–	–	49.9	–
O=S(=O)(NC1=NCCN1C(=S)SN1CCn2c1nsc2=S)c1cccc2ccccc12	> 100	> 100 µM	99.3 µM	> 100 µM	80.9	67.2 µM	> 100	49.9 µM	> 100 µM	35.2 µM	27.5 µM	30.9	25.5	20.9	29.2 µM	10.5	23.3 µM	24.3	> 100	20.6 µM
O=S(=O)(NCCNc1nccc(-c2c(-c3ccc(F)c(O)c3)nc3sccn23)n1)c1ccc(F)cc1	58	28.5 µM	6.09 µM	8.81 µM	22.4	5.46 µM	> 100	> 100 µM	14.7 µM	3.63 µM	2.58 µM	2.14	2.94	4.07	3.9 µM	2.17	4.71 µM	1.55	8.81	4.75 µM
CS(=O)(=O)CCNCc1cc(-c2cc3c(Nc4ccc(OCc5cccc(F)c5)c(Cl)c4)ncnc3s2)cs1	> 25	> 25 µM	> 25 µM	> 17.6 µM	> 25	11.8 µM	> 25	> 25 µM	> 25 µM	10.8 µM	7.35 µM	4.18	4.67	20.5	14.4 µM	2.27	11.3 µM	7.9	> 25	9.34 µM
Cc1nc(N)nc2c1CCC(O)S2 (configuration not stated)	78.2	> 100 µM	33 µM	> 100 µM	17.2	27 µM	25.6	11.5 µM	14.2 µM	19.3 µM	22 µM	11.4	10.7	3.66	3.26 µM	5.4	4.84 µM	11.2	39.8	3.3 µM
O=C(O)c1ccc(NCn2nc(-c3ccccc3O)oc2=S)cc1	> 100	72 µM	> 100 µM	> 100 µM	> 100	> 100 µM	> 100	> 100 µM	–	42.3 µM	27.7 µM	62.8	> 100	50.7	–	67.9	96.4 µM	–	–	43.1 µM
COc1cc2ncn(-c3cc(OCc4ccccc4C(F)(F)F)c(C(=O)N(C)C)s3)c2cc1OC	> 25	> 25 µM	> 25 µM	> 25 µM	> 25	> 18.7 µM	> 25	> 25 µM	> 25 µM	24.9 µM	> 25 µM	> 25	> 25	> 25	18.1 µM	8.53	> 25 µM	> 18.6	> 25	> 25 µM
NCCSSCCN	> 100	> 100 µM	> 100 µM	> 100 µM	> 100	> 100 µM	> 100	> 100 µM	> 100 µM	–	–	–	–	–	–	–	–	–	> 100	–
CN(CCCCCl)P(=O)(OCCS(=O)(=O)CC(NC(=O)CCC(N)C(=O)O)C(=O)NC(C(=O)O)c1ccccc1)OCC1OC(n2ccc(N)nc2=O)C(F)(F)C1O (configuration not stated)	> 100	> 33.8 µM	5.23 µM	> 100 µM	16.8	> 45.1 µM	> 100	> 100 µM	> 100 µM	0.125 µM	–	0.0339	> 60.4	0.0483	> 100 µM	0.744	0.337 µM	0.825	> 25.2	0.23 µM
O=[N+]([O-])c1cc(Cl)c2[nH]c3c(Cl)cc([N+](=O)[O-])cc3c2c1	2.9	–	6.34 µM	> 100 µM	28.2	18.8 µM	> 100	5.43 µM	> 100 µM	0.302 µM	0.362 µM	0.304	0.609	0.213	0.263 µM	0.461	0.403 µM	0.511	9.35	0.286 µM
C=CCn1c(C)nc2ccc(Nc3nc(Nc4ccc(F)cc4)nc4ccccc34)cc21	22.2	4.31 µM	23.3 µM	56.7 µM	26	2.57 µM	27.8	14.9 µM	5.81 µM	4.18 µM	1.99 µM	4.95	9.83	4.23	2.06 µM	1.23	8.69 µM	1.51	3.37	3.15 µM
CC1CCC2(NC1)OC1CC3C4CC=C5CC(O)CCC5(C)C4CCC3(C)C1C2C (configuration not stated)	> 100	91.7 µM and 30 µM	31.5 µM and 29.9 µM	> 100 µM and 37 µM	> 100	60.2 µM and 39.9 µM	> 100	64.7 µM and 23.5 µM	58.8 µM and 53.7 µM	42.4 µM and 20.3 µM	29.8 µM and 11.1 µM	–	–	–	22.3 µM and 5.29 µM	–	39.8 µM and 16.1 µM	–	15.3	23.7 µM and 4.92 µM
Cc1nc(-c2ccccc2)n2nc(NCCCN3CCOCC3)ncc12	> 25	> 25 µM	> 25 µM	> 25 µM	> 25	> 25 µM	> 25	> 25 µM	> 25 µM	> 25 µM	10.4 µM	> 25	12.2	> 25	15.1 µM	6.75	> 25 µM	> 11.9	> 25	> 25 µM
Cc1ncc(C(=O)Nc2ccc(CN3CCN(C)CC3)c(C(F)(F)F)c2)cc1C#Cc1cnc2cccnn12	1.53	1.53 µM	1.17 µM	3.3 µM	1.01	1.14 µM	2.59	2.6 µM	1.98 µM	0.32 µM	0.287 µM	0.195	0.625	0.221	0.205 µM	0.438	0.622 µM	1.04	1.99	0.727 µM
Cn1c(C(=O)c2ccncc2)cc2ccccc21	> 100	> 100 µM	> 100 µM	> 100 µM	> 100	> 100 µM	> 100	> 100 µM	> 100 µM	> 100 µM	> 100 µM	76.5	65	> 100	> 100 µM	35.1	96.7 µM	85.6	> 100	> 100 µM
CC(C)CCC[C@@H](C)[C@H]1CC[C@H]2[C@@H]3CC[C@H]4C[C@@H](CCC=C(c5cc(Cl)c(O)c(C(=O)O)c5)c5cc(Cl)c(O)c(C(=O)O)c5)CC[C@]4(C)[C@H]3CC[C@]12C	> 100	> 100 µM	> 100 µM	> 100 µM	> 100	> 100 µM	> 100	> 100 µM	> 100 µM	–	–	–	–	–	–	–	–	–	> 100	–
OCc1ccc(N2CCc3cccc(F)c3C2)cc1Cl	15.7	67.3 µM	53.2 µM	77.8 µM	40.9	27.9 µM	> 89.4	36.3 µM	0.201 µM	0.189 µM	20.7 µM	18.4	21.9	13.9	0.0279 µM	12.6	24.5 µM	13.9	47.7	< 0.0297 µM
O=C1/C(=C/c2cccc(Br)c2)COc2ccc(O)cc21	16.5	4.16 µM	5.75 µM	26.2 µM	15.6	5.99 µM	18.2	3 µM	14.1 µM	4.12 µM	1.89 µM	1.88	3.47	3.79	3.55 µM	2.12	3.33 µM	1.79	14.6	1.49 µM
CC(=O)c1ccc2c(c1)C1C=CCC1[C@H](c1cc3c(cc1Br)OCO3)N2 (some centres not stated)	> 34.4	22.1 µM	5.07 µM	2.19 µM	33.4	3.35 µM	19.1	11.9 µM	> 50.2 µM	2.03 µM	1.63 µM	1.3	0.713	2.24	1.63 µM	1.85	0.67 µM	0.5	7.55	1.1 µM
O=c1c2cc(F)ccc2sc2c(N3CCNCC3)nc3ccc(F)cc3c12	–	2.8 µM	3.94 µM	3.6 µM	3.17	2.71 µM	3.16	–	3.48 µM	–	1.48 µM	2.05	1.7	1.67	1.83 µM	1.33	1.57 µM	1.42	2.82	–
CC[n+]1oc(C(=O)c2ccc(Cl)cc2)c(-c2ccccc2)c1-c1ccccc1.[Cl][Fe]([Cl])([Cl])[Cl]	68	99.3 µM	> 100 µM	> 100 µM	> 100	–	> 100	> 100 µM	> 100 µM	22.1 µM	33.5 µM	83.6	34.5	45.7	65.7 µM	–	36.1 µM	30.4	> 100	6.63 µM
O=C1CC2C(=O)c3ccccc3CC2c2ccccc21 (configuration not stated)	> 100	> 100 µM	62.6 µM	> 100 µM	–	–	> 100	> 100 µM	> 100 µM	–	–	–	–	–	–	–	–	–	75	–
COc1ccc(NC(=O)CSC2=C(Nc3cccc(Br)c3)C(=O)N(Cc3ccccc3)C2=O)cc1Cl	> 100	> 100 µM	> 100 µM	> 100 µM	–	> 100 µM	> 100	> 100 µM	> 100 µM	62.4 µM	> 100 µM	3.41	35.4	–	> 100 µM	> 100	21.5 µM	> 100	> 100	35.5 µM
O=C(/C=C/C12c3ccccc3C(c3ccccc31)C1C(=O)NC(=O)C12)c1ccc(Cl)cc1Cl (configuration not stated)	6.03	3.15 µM	–	7.01 µM	4.1	3.22 µM	3.44	3.06 µM	3.82 µM	2.23 µM	1.76 µM	–	2.76	2.02	1.86 µM	1.73	1.79 µM	1.64	3.08	1.68 µM
O=C(/C=C/c1ccccc1)C(Br)C(Br)c1ccccc1 (configuration not stated)	9.3	2.57 µM	3.58 µM	7.7 µM	–	3 µM	5.68	3.81 µM	3.67 µM	2.79 µM	1.25 µM	1.34	2.36	–	1.73 µM	1.52	2.16 µM	3.06	17.5	1.68 µM
